Measured values reported in patent US11730720B2, “ALK5 inhibitors” (THERAVANCE BIOPHARMA R&D IP, LLC, priority 2018, dated 2023).

Assays:
[1] = test system: TGF-β-stimulated SMAD3 phosphorylation in BEAS-2B cells; assay: Cellular ALK5 potency assay, inhibition of TGF-β stimulated pSMAD3 formation in BEAS-2B cells; assay type: cell-based; details: Homo sapiens, inhibition of TGF-β (10 ng/mL) stimulated pSMAD3 formation, 1 hour compound incubation, read-out: BEAS2B pIC50 (converted)
How it was run: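 Phospho-SMAD3 was quantified by AlphaLISA in lysates of human lung epithelial BEAS-2B cells. Compound was added 1 h (37 °C, HEPES/BSA-supplemented HBSS) before a 30 min challenge with 10 ng/mL TGF-β. Values are pIC50 relative to stimulated cells without compound.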

[2] = molecular target: T1, recombinant human ALK5 (TGF-βR1) protein (Homo sapiens, UniProt P36897); assay: Biochemical ALK5 (TGF-βR1) assay to measure pKi (LANCE Ultra ULight kinase assay); details: apparent pKi, converted from pIC50 using the Cheng-Prusoff equation
T1 construct: purchased Life Technologies PR9075A
T1 sequence (P36897 34-503): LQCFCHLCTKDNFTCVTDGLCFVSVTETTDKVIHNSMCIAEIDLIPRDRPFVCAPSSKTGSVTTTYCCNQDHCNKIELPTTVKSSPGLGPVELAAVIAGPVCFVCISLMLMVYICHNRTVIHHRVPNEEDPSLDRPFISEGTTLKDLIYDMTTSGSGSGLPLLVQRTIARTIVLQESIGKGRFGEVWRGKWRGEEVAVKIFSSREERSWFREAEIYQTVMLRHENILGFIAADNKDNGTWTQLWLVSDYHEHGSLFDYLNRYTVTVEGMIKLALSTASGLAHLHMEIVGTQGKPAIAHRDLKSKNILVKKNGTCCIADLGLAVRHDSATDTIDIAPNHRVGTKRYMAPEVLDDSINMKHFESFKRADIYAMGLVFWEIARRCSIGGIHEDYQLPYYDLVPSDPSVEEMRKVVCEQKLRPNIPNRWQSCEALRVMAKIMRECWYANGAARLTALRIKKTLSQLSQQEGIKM
How it was run: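 TR-FRET kinase format: compound dose range 10 μM–25 pM equilibrated 60 min with human ALK5 and ULight-labelled topoisomerase 2α peptide in HEPES/MgCl2 buffer pH 7.5 with DTT. Reaction started with ATP (125 μM stock, 5× final), 60 min at 37° C, stopped with EDTA/Eu-anti-phospho antibody; pKi derived from pIC50 via Cheng-Prusoff.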

SMILES | Ki [2] | IC50 [1]
COC(=O)[C@@H]1CN(c2cnc3ccc(-c4c[nH]nc4-c4cc(Cl)ccc4F)nc3c2)CCN1 [Compound 1-59, methyl (2S)-4-[6-[3-(5-chloro-2-fluoro-phenyl)-1H-pyrazol-4-yl]-1,5-naphthyridin-3-yl]piperazine-2-carboxylate] | 0.398 to 3.16 nM | 25.1 to 158 nM
CN1CCN(C2CCN(c3cnc4ccc(-c5c[nH]nc5-c5ccccc5F)nc4c3)CC2)CC1 [Compound 11-1, 2-(3-(2-fluorophenyl)-1H-pyrazol-4-yl)-7-(4-(4-methylpiperazin-1-yl)piperidin-1-yl)-1,5-naphthyridine] | 0.398 to 3.16 nM | 25.1 to 158 nM
Fc1ccc(Cl)cc1-c1n[nH]cc1-c1ccc2ncc(N3CCCNCC3)cc2n1 [Compound 1-63, 2-[3-(5-chloro-2-fluoro-phenyl)-1H-pyrazol-4-yl]-7-(1,4-diazepan-1-yl)-1,5-naphthyridine] | 0.398 to 3.16 nM | 25.1 to 158 nM
Cn1cccc(-c2cnc3ccc(-c4c[nH]nc4-c4ccc(F)c(F)c4)nc3c2)c1=O [Compound 8-16, 3-[6-[3-(3,4-difluorophenyl)-1H-pyrazol-4-yl]-1,5-naphthyridin-3-yl]-1-methyl-pyridin-2-one] | 3.98 to 31.6 nM | 25.1 to 158 nM
Fc1ccc(-c2n[nH]cc2-c2ccc3ncc(-c4cn[nH]c4)cc3n2)cc1F [Compound 8-13, 2-[3-(3,4-difluorophenyl)-1H-pyrazol-4-yl]-7-(1H-pyrazol-4-yl)-1,5-naphthyridine] | 0.398 to 3.16 nM | ≤ 20 nM
CC(C)N1CC2CN(c3cnc4ccc(-c5c[nH]nc5-c5cc(Cl)ccc5F)nc4c3)C2C1 (centres unmarked) [Compound 1-73, 2-[3-(5-chloro-2-fluoro-phenyl)-1H-pyrazol-4-yl]-7-(3-isopropyl-3,6-diazabicyclo[3.2.0]heptan-6-yl)-1,5-naphthyridine] | 3.98 to 31.6 nM | 25.1 to 158 nM
CC(C)N1CCN(c2cnc3ccc(-c4c[nH]nc4-c4ccc(F)c(F)c4)nc3c2)CC1 [Compound 8-10, 2-[3-(3,4-difluorophenyl)-1H-pyrazol-4-yl]-7-(4-isopropylpiperazin-1-yl)-1,5-naphthyridine] | 0.398 to 3.16 nM | 25.1 to 158 nM
Fc1ccc(Cl)cc1-c1n[nH]cc1-c1ccc2ncc(N3CC4CNCC43)cc2n1 (centres unmarked) [Compound 1-54, 2-[3-(5-chloro-2-fluoro-phenyl)-1H-pyrazol-4-yl]-7-(3,6-diazabicyclo[3.2.0]heptan-6-yl)-1,5-naphthyridine] | 0.398 to 3.16 nM | 25.1 to 158 nM
Fc1ccccc1-c1n[nH]cc1-c1ccc2ncc(-c3cccnc3)cc2n1 [Compound 11-4, 2-[3-(2-fluorophenyl)-1H-pyrazol-4-yl]-7-(3-pyridyl)-1,5-naphthyridine] | 3.98 to 31.6 nM | 25.1 to 158 nM
Fc1ccc(Cl)cc1-c1[nH]nnc1-c1ccc2ncc(N3CCNCC3)cc2c1 [Compound 18-5, 6-[5-(5-chloro-2-fluoro-phenyl)-1H-triazol-4-yl]-3-piperazin-1-yl-quinoline] | 0.398 to 3.16 nM | 25.1 to 158 nM
CN(C)C1CN(c2cnc3ccc(-c4c[nH]nc4-c4cc(Cl)ccc4F)nc3c2)C1 [Compound 1-31, 1-(6-(3-(5-chloro-2-fluorophenyl)-1H-pyrazol-4-yl)-1,5-naphthyridin-3-yl)-N,N-dimethylazetidin-3-amine] | 0.0398 to 0.316 nM | ≤ 20 nM
N[C@@H]1CCCC[C@H]1n1cc(-c2cnc3ccc(-c4nc[nH]c4-c4ccc(F)c(F)c4)cc3c2)cn1 [Compound 23-3, (1R,2R)-2-(4-(6-(5-(3,4-difluorophenyl)-1H-imidazol-4-yl)quinolin-3-yl)-1H-pyrazol-1-yl)cyclohexan-1-amine] | 0.0398 to 0.316 nM | 25.1 to 158 nM
CNCCn1ccc(-c2cnc3ccc(-c4c[nH]nc4-c4ccc(F)c(F)c4)nc3c2)n1 [Compound 8-14, 2-[3-[6-[3-(3,4-difluorophenyl)-1H-pyrazol-4-yl]-1,5-naphthyridin-3-yl]pyrazol-1-yl]-N-methyl-ethanamine] | 0.398 to 3.16 nM | 25.1 to 158 nM
COC(=O)c1cnc2ccc(-c3[nH]nnc3-c3cc(Cl)ccc3F)nc2c1 [Compound 5-1, methyl 6-(4-(5-chloro-2-fluorophenyl)-1H-1,2,3-triazol-5-yl)-1,5-naphthyridine-3-carboxylate] | 0.398 to 3.16 nM | 25.1 to 158 nM
Fc1ccc(Cl)cc1-c1n[nH]cc1-c1ccc2ncc(N3CCC(N4CCCC4)CC3)cc2n1 [Compound 1-44, 2-[3-(5-chloro-2-fluoro-phenyl)-1H-pyrazol-4-yl]-7-(4-pyrrolidin-1-yl-1-piperidyl)-1,5-naphthyridine] | 0.0398 to 0.316 nM | 25.1 to 158 nM
CC(C)N1CCN(CCNc2cnc3ccc(-c4nc[nH]c4-c4ccc(F)c(F)c4)nc3c2)CC1 [Compound 9-2, 6-[5-(3,4-difluorophenyl)-1H-imidazol-4-yl]-N-[2-(4-isopropylpiperazin-1-yl)ethyl]-1,5-naphthyridin-3-amine] | 3.98 to 31.6 nM | 25.1 to 158 nM
NC1CC=C(c2cnc3ccc(-c4c[nH]nc4-c4cc(Cl)ccc4F)nc3c2)CC1 (centres unmarked) [Compound 1-91, 4-(6-(3-(5-chloro-2-fluorophenyl)-1H-pyrazol-4-yl)-1,5-naphthyridin-3-yl)cyclohex-3-en-1-amine] | 0.0398 to 0.316 nM | ≤ 20 nM

Second part, led by results:

Ki [2] | SMILES | IC50 [1]
≤ 0.0316 nM | CN1CC=C(c2nc3n(n2)CCN(c2cnc4ccc(-c5nc[nH]c5-c5cc(Cl)ccc5F)nc4c2)C3)C1 [Compound 2-15, 2-(5-(5-chloro-2-fluorophenyl)-1H-imidazol-4-yl)-7-(2-(1-methyl-2,5-dihydro-1H-pyrrol-3-yl)-5,6-dihydro-[1,2,4]triazolo[1,5-a]pyrazin-7(8H)-yl)-1,5-naphthyridine] | 25.1 to 158 nM
0.0398 to 0.316 nM | OCCn1cc(-c2cnc3ccc(-c4c[nH]nc4-c4ccc(F)c(F)c4)nc3c2)cn1 [Compound 8-21, 2-(4-(6-(3-(3,4-difluorophenyl)-1H-pyrazol-4-yl)-1,5-naphthyridin-3-yl)-1H-pyrazol-1-yl)ethan-1-ol] | ≤ 20 nM
0.0398 to 0.316 nM | CC(C)N1CC[C@@H](N(C)c2cnc3ccc(-c4c[nH]nc4-c4cc(Cl)c(F)cc4F)nc3c2)C1 [Compound 6-37, (R)-6-(3-(5-chloro-2,4-difluorophenyl)-1H-pyrazol-4-yl)-N-(1-isopropylpyrrolidin-3-yl)-N-methyl-1,5-naphthyridin-3-amine] | 25.1 to 158 nM
0.0398 to 0.316 nM | Fc1cc(F)c(-c2n[nH]cc2-c2ccc3ncc(-c4nc5n(n4)CCNC5)cc3n2)cc1Cl [Compound 6-46, 2-[3-(5-chloro-2,4-difluoro-phenyl)-1H-pyrazol-4-yl]-7-(5,6,7,8-tetrahydro-[1,2,4]triazolo[1,5-a]pyrazin-2-yl)-1,5-naphthyridine] | 25.1 to 158 nM
0.0398 to 0.316 nM | CN(CC1CNC1)c1cnc2ccc(-c3c[nH]nc3-c3cc(Cl)c(F)cc3F)nc2c1 [Compound 6-32, N-(azetidin-3-ylmethyl)-6-[3-(5-chloro-2,4-difluoro-phenyl)-1H-pyrazol-4-yl]-N-methyl-1,5-naphthyridin-3-amine] | 25.1 to 158 nM
0.0398 to 0.316 nM | Fc1cc(F)c(-c2n[nH]cc2-c2ccc3ncc(NCCN4CCNCC4)cc3n2)cc1Cl [Compound 6-9, 6-[3-(5-chloro-2,4-difluoro-phenyl)-1H-pyrazol-4-yl]-N-(2-piperazin-1-ylethyl)-1,5-naphthyridin-3-amine] | 25.1 to 158 nM
0.0398 to 0.316 nM | C[C@@H]1CN(CCNc2cnc3ccc(-c4c[nH]nc4-c4cc(Cl)ccc4F)nc3c2)C[C@H](C)N1 [Compound 1-1, 6-(3-(5-chloro-2-fluorophenyl)-1H-pyrazol-4-yl)-N-(2-((3S,5R)-3,5-dimethylpiperazin-1-yl)ethyl)-1,5-naphthyridin-3-amine] | 25.1 to 158 nM
0.0398 to 0.316 nM | CNCCn1cc(-c2cnc3ccc(-c4nc[nH]c4-c4cc(Cl)c(F)cc4F)nc3c2)cn1 [Compound 7-4, 2-(4-(6-(5-(5-chloro-2,4-difluorophenyl)-1H-imidazol-4-yl)-1,5-naphthyridin-3-yl)-1H-pyrazol-1-yl)-N-methylethan-1-amine] | 25.1 to 158 nM
0.0398 to 0.316 nM | Fc1ccc(Cl)cc1-c1nc2ccccn2c1-c1ccc2ncc(N3CCNCC3)cc2n1 [Compound 3-2, 2-(2-(5-chloro-2-fluorophenyl)imidazo[1,2-a]pyridin-3-yl)-7-(piperazin-1-yl)-1,5-naphthyridine] | 200 to 1260 nM
0.0398 to 0.316 nM | Fc1ccc(Cl)cc1-c1n[nH]cc1-c1ccc2ncc(NC3CNC3)cc2n1 [Compound 1-18, N-(azetidin-3-yl)-6-[3-(5-chloro-2-fluoro-phenyl)-1H-pyrazol-4-yl]-1,5-naphthyridin-3-amine] | 25.1 to 158 nM
≤ 0.0316 nM | CNCCn1cc(-c2cnc3ccc(-c4nn[nH]c4-c4cc(Cl)ccc4F)cc3c2)cn1 [Compound 18-1, 2-(4-(6-(5-(5-chloro-2-fluorophenyl)-1H-1,2,3-triazol-4-yl)quinolin-3-yl)-1H-pyrazol-1-yl)-N-methylethan-1-amine] | 25.1 to 158 nM
